Experimental data reported in patent US20100330177A1, “PHARMACEUTICAL COMPOSITIONS OF A COMBINATION OF METFORMIN AND A DIPEPTIDYL PEPTIDASE-IV INHIBITOR” (Merck Sharp & Dohme Corp., priority 2009, published 2010).
Counter-ions that a name gives are not always drawn.

Legend:
[1] = in vitro dissolution profile of sitagliptin phosphate from the drug film layer; type: physicochemical; details: FIG. 2
Excerpt: FIG. 2 is a graph showing in vitro dissolution profiles for sitagliptin phosphate from the drug film layer in a pharmaceutical composition of the present invention compared to sitagliptin phosphate in JANUMET™ which is a marketed fixed-dose combination of immediate-release metformin hydrochloride and immediate-release sitagliptin phosphate.

Type 2 diabetes = details: oral administration, human Type 2 diabetics; cited from earlier work

| SMILES | dissolution compared with sitagliptin phosphate in JANUMET ([1]; sitagliptin phosphate from the drug film layer vs marketed immediate-release fixed-dose combination) | time to complete dissolution ([1]; sitagliptin phosphate from the immediate-release drug film layer of the composition) [min] | effect on fasting glucose, postprandial glucose excursion and HbA1c (Type 2 diabetes) |
| --- | --- | --- | --- |
| N[C@@H](CC(=O)N1CCn2c(nnc2C(F)(F)F)C1)Cc1cc(F)c(F)cc1F [sitagliptin phosphate, dihydrogenphosphate salt of (2R)-4-oxo-4-[3-(trifluoromethyl)-5,6-dihydro[1,2,4]triazolo[4,3-a]pyrazin-7(8H)-yl]-1-(2,4,5-trifluorophenyl)butan-2-amine] | comparable to that of sitagliptin phosphate in JANUMET™ | ≤ 30 |  |
| Cn1c(=O)cc(N2CCC[C@@H](N)C2)n(Cc2ccccc2C#N)c1=O [alogliptin] |  |  | reduce fasting glucose and postprandial glucose excursion in association with significantly reduced HbA1c levels |
| N[C@@H](CC(=O)N1CCn2c(nnc2C(F)(F)F)C1)Cc1cc(F)c(F)cc1F [sitagliptin, (2R)-4-oxo-4-[3-(trifluoromethyl)-5,6-dihydro[1,2,4]triazolo[4,3-a]pyrazin-7(8H)-yl]-1-(2,4,5-trifluorophenyl)butan-2-amine] |  |  | reduce fasting glucose and postprandial glucose excursion in association with significantly reduced HbA1c levels |
| N#C[C@@H]1CCCN1C(=O)CNC12CC3CC(CC(O)(C3)C1)C2 [vildagliptin] |  |  | reduce fasting glucose and postprandial glucose excursion in association with significantly reduced HbA1c levels |
